Assays:
[1] = acid dissociation index (pK1, pK2) at 25° C.; type: physicochemical; details: for Difference (pK2 - pK1): 25° C., method (D); for first acid dissociation index / second acid dissociation index: for the dibasic acid, source of value not given
Experimental: The organic dibasic acid used as a deodorant in the present invention is selected from organic dibasic acids and/or salts thereof having a difference between the first acid dissociation index and the second acid dissociation index of 1.7 or more at 25° C. (hereinafter, described as deodorant organic dibasic acid). The acid dissociation index can be measured, for example, by a method (A) described in The Journal of Physical Chemistry vol.
Further, previously obtained data may also be used. […] Further, the organic dibasic acid can be selected based on data bases (D) such as pKa BASE of Compudrug, and the like. The first acid dissociation index and the second acid dissociation index of the organic dibasic acid may be determined by any of the methods (A) to (D).

[2] = 25° C.; method (D), data bases such as pKa BASE of Compudrug; cited from earlier work

Molecule | Difference (pK2 - pK1) [1] | First acid dissociation index (pK1) [2] | Second dissociation index (pK2) [2] | first acid dissociation index [1] | second acid dissociation index [1]
CC1CCC(CC(=O)O)(CC(=O)O)CC1 [4-methylcyclohexyl-1,1-diacetic acid] | 2.61 | 3.49 | 6.10 |  | 
CCC(C)(C(=O)O)C(=O)O [2-ethyl-2-methylmalonic acid] | 4.35 | 2.20 | 6.55 |  | 
O=C(O)CC(CC(=O)O)(c1ccccc1)c1ccccc1 [3,3-diphenylglutaric acid] | 2.79 | 4.02 | 6.81 |  | 
CC(C)(C)C(C(=O)O)C(=O)O [2-t-butylmalonic acid] | 4.12 | 2.92 | 7.04 |  | 
O=C(O)[C@@H]1CCCCC[C@H]1C(=O)O (relative stereo) [Trans-1,2-cycloheptanedicarboxylic acid] | 1.88 | 4.30 | 6.18 |  | 
O=C(O)CC1(CC(=O)O)CCCCC1 [Cyclohexyl-1,1-diacetic acid] | 3.59 | 3.49 | 7.08 |  | 
CCC(C(=O)O)C(=O)O [2-ethylmalonic acid] | 2.85 | 2.96 | 5.81 |  | 
O=C(O)[C@H]1CCCCCC[C@H]1C(=O)O [Cis-1,2-cyclooctanedicarboxylic acid] | 3.35 | 3.99 | 7.34 |  | 
CC(C)(C(=O)O)C(=O)O [2,2-dimethylmalonic acid] | 2.70 |  |  |  | 
CC(C)C(CC(=O)O)(CC(=O)O)C(C)C [3,3-diisopropylglutaric acid] | 4.05 | 3.65 | 7.68 |  | 
CCC(CC(=O)O)(CC(=O)O)c1ccccc1 [3-ethyl-3-phenylglutaric acid] | 3.06 | 3.89 | 6.95 |  | 
O=C(O)[C@@H]1CCCCCC[C@H]1C(=O)O (relative stereo) [Trans-1,2-cyclooctanedicarboxylic acid] | 1.87 | 4.37 | 6.24 |  | 
CC(C)C(C)(CC(=O)O)CC(=O)O [3-isopropyl-3-methylglutaric acid] | 3.14 | 3.78 | 6.92 |  | 
CCCC(CC(=O)O)(CC(=O)O)c1ccccc1 [3-phenyl-3-propylglutaric acid] | 3.06 | 3.88 | 6.94 |  | 
CC1CCCCC1(CC(=O)O)CC(=O)O (centres unmarked) [2-methylcyclohexyl-1,1-diacetic acid] | 3.36 | 3.53 | 6.89 |  | 
O=C(O)/C=C\C(=O)O [Maleic acid] | 4.08 |  |  |  | 
CC(C)(CC(=O)O)CC(=O)O [3,3-dimethylglutaric acid] | 2.60 | 3.85 | 6.45 |  | 
CC1CCCC(CC(=O)O)(CC(=O)O)C1 (centres unmarked) [3-methylcyclohexyl-1,1-diacetic acid] | 2.59 | 3.49 | 6.08 |  | 
CC1CCC(CC(=O)O)(CC(=O)O)C1 (centres unmarked) [3-methylcyclopentyl-1,1-diacetic acid] | 2.95 | 3.79 | 6.74 |  | 
CCC(CC)C(CC)(CCC(=O)O)C(=O)O (centres unmarked) [2-ethyl-2-(1-ethylpropyl)glutaric acid] | 5.16 | 2.15 | 7.31 |  | 
O=C(O)CC(C(=O)O)c1ccccc1 (centres unmarked) [Phenylsuccinic acid] | 1.77 | 3.78 | 5.55 |  | 
O=C(O)[C@H]1CC[C@H]1C(=O)O [Cis-1,2-cyclobutanedicarboxylic acid] | 2.07 | 4.16 | 6.23 |  | 
CC(C(=O)O)C(=O)O [2-methylmalonic acid] | 2.71 | 3.05 | 5.76 |  | 
CCC(C(=O)O)C(C)C(=O)O (centres unmarked) [2-ethyl-3-methylsuccinic acid] | 2.90 | 3.20 | 6.10 |  | 

Molecule | Difference (pK2 - pK1) [1] | First acid dissociation index (pK1) [2] | Second dissociation index (pK2) [2] | first acid dissociation index [1] | second acid dissociation index [1]
CCCC(CCC)(C(=O)O)C(=O)O [2,2-dipropylmalonic acid] | 5.32 | 1.86 | 7.18 |  | 
CC(C)(C)C(C(=O)O)C(C(=O)O)C(C)(C)C (centres unmarked) [2,3-di-t-butylsuccinic acid] | 8.06 | 2.20 | 10.26 |  | 
O=C(O)[C@H]1C[C@H]1C(=O)O [Cis-1,2-cyclopropanedicarboxylic acid] | 3.09 | 3.56 | 6.65 |  | 
CCC(C(=O)O)(C(=O)O)C(C)C [2-ethyl-2-isopropylmalonic acid] | 6.07 | 2.03 | 8.10 |  | 
CC1(C)[C@H](C(=O)O)[C@@H]1C(=O)O [3,3-dimethyl-cis-1,2-cyclopropanedicarboxylic acid] | 5.56 | 2.61 | 8.17 |  | 
O=C(O)[C@H]1CCC[C@H]1C(=O)O [Cis-1,2-cyclopentanedicarboxylic acid] | 2.15 | 4.42 | 6.57 |  | 
CC(C)C(C(=O)O)(C(=O)O)C(C)C [2,2-diisopropylmalonic acid] | 6.73 | 2.12 | 8.85 |  | 
O=C(O)[C@H]1CCCC[C@H]1C(=O)O [Cis-1,2-cyclohexanedicarboxylic acid] | 2.49 |  |  |  | 
O=C(O)[C@@H]1CCC[C@H]1C(=O)O (relative stereo) [Trans-1,2-cyclopentandicarboxylic acid] | 1.85 | 4.14 | 5.99 |  | 
CCC(CC)(CC(=O)O)CC(=O)O [3,3-diethylglutaric acid] | 3.75 | 3.67 | 7.42 |  | 
CCC(C(=O)O)C(CC)C(=O)O (centres unmarked) [2,3-diethylsuccinic acid] | 2.83 | 3.63 | 6.46 |  | 
CC(CC(=O)O)(CC(=O)O)c1ccccc1 [3-methyl-3-phenylglutaric acid] | 2.05 | 4.12 | 6.17 |  | 
CCC(C)(CC(=O)O)CC(=O)O [3-methyl-3-ethylglutaric acid] | 3.08 | 3.62 | 6.70 |  | 
O=C(O)CC1(CC(=O)O)CCCC1 [cyclopentyl-1,1-diacetic acid] | 2.97 | 3.80 | 6.77 |  | 
alkenylsuccinic acid carrying an alkenyl group having 12 carbon atoms [a-3] |  |  |  | 4.06 | 6.01
CCCC(CCC)(CC(=O)O)CC(=O)O [3,3-dipropylglutaric acid] | 3.83 | 3.65 | 7.48 |  | 
CC(C)(C(=O)O)C(C)(C)C(=O)O [Tetramethylsuccinic acid] | 3.85 | 3.56 | 7.41 |  | 
O=C(O)[C@H]1CCCCC[C@H]1C(=O)O [Cis-1,2-cycloheptanedicarboxylic acid] | 3.73 | 3.87 | 7.60 |  | 
CCC(CC)(C(=O)O)C(=O)O [2,2-diethylmalonic acid] | 5.27 | 2.15 | 7.42 |  | 
CC(C)C(C(=O)O)C(=O)O [2-isopropylmalonic acid] | 2.96 | 2.92 | 5.88 |  | 
alkenylsuccinic acid carrying an alkenyl group having 14 carbon atoms [a-4] |  |  |  | 4.01 | 6.12
CC(C)(C)C(C)(CC(=O)O)CC(=O)O [3-t-buthyl-3-methylglutaric acid] | 3.88 | 3.61 | 7.49 |  | 
CC(C(=O)O)C(C)C(=O)O (centres unmarked) [2,3-dimethylsuccinic acid] | 2.08 | 3.92 | 6.00 |  | 
O=C(O)[C@@H]1CCCC[C@H]1C(=O)O (relative stereo) [Trans-1,2-cyclohexanedicarboxylic acid] | 1.76 |  |  |  | 
